# In patent US5223488A, “Oxidized-type glutathione alkyl ester” (Senju Pharmaceutical Company, Ltd., priority 1990, dated 1993):
# Read-outs that look alike come from different tables or passages of the source.
# System: acetaminophen-induced liver disorder
# Assay: Suppressive effect on acetaminophen-induced liver disorder in the rat (s-GOT, s-GPT)
# Assay type: in vivo
# Details: for inhibition at 102 mg/kg: Rattus norvegicus; for inhibition at 102 mg/kg / inhibition rate of s-GOT / inhibition rate of s-GPT: versus 5% gum arabic control; for s-GOT / s-GPT: male Wistar rats, blood 24 h later, mean ± S.E. (n=4-8)
# Protocol: Male Wistar rats with a body weight of about 180 g were fasted for 24 hours and orally administered, through a cannula for oral administration, 87-349 mg of oxidized-type glutathione isopropyl ester (hereinafter also referred to as "GSSG isopropyl"), which is one of the compounds of the present invention, 102 mg of reduced-type glutathione isopropyl ester 1/2 H2 SO4.1/2H2 O (87 mg as reduced type glutathione isopropyl ester (hereinafter also referred to as "GSH isopropyl")) or 5% gum arabic solution as a control, respectively. 1 hour later, 400 mg/kg of acetaminophen, a compound which may induce disorders in the liver, was intra peritoneally administered. 24 hours later, the rats were anesthetized with pentobarbital and the blood was collected from the abdominal aorta, and s-GOT and s-GPT were measured to compare the hepatic disorder suppressing effect of GSSG isopropyl with that of GSH isopropyl.
# [1] = 102 mg/kg [0.25 mmol/kg] oral 1 h before acetaminophen 400 mg/kg i.p.
# [2] = 87 mg/kg [0.125 mmol/kg] oral 1 h before acetaminophen 400 mg/kg i.p.
# [3] = 174 mg/kg [0.25 mmol/kg] oral 1 h before acetaminophen 400 mg/kg i.p.
# [4] = 349 mg/kg [0.5 mmol/kg] oral 1 h before acetaminophen 400 mg/kg i.p.
Molecule,"elevation of s-GOT and s-GPT (102 mg/kg oral, acetaminophen-treated rats)","inhibition at 102 mg/kg (102 mg/kg oral, read-out: inhibition rate of s-GOT) [%]","inhibition at 102 mg/kg (102 mg/kg oral, read-out: inhibition rate of s-GPT) [%]",s-GOT [1] [IU/1],s-GPT [1] [IU/1],"hepatic disorder suppressing effect compared with 102 mg/kg of GSH isopropyl sulfate (87 mg/kg oral, acetaminophen-treated rats)",inhibition rate of s-GOT (87 mg/kg oral),inhibition rate of s-GPT (87 mg/kg oral),inhibition rate of s-GOT (174 mg/kg oral),inhibition rate of s-GPT (174 mg/kg oral),inhibition rate of s-GOT (349 mg/kg oral),inhibition rate of s-GPT (349 mg/kg oral),"elevation of s-GOT and s-GPT (87-349 mg/kg oral, acetaminophen-treated rats)",s-GOT [2] [IU/1],s-GPT [2] [IU/1],s-GOT [3] [IU/1],s-GPT [3] [IU/1],s-GOT [4] [IU/1],s-GPT [4] [IU/1]
"CC(C)OC(=O)CNC(=O)[C@H](CS)NC(=O)CC[C@H](N)C(=O)O.O=S(=O)(O)O [GSH isopropyl sulfate, γ-L-glutamyl-L-cysteinylglycine isopropyl ester sulfate, reference compound]",significantly suppresses,94.5,94.4,475 ± 156,253 ± 97,,,,,,,,,,,,,,
γ-L-GLUTAMYL-L-CYSTEI[…] ESTER DISULFIDE [GSSG isopropyl],,,,,,almost equivalent,95.0,94.9,95.9,96.6,98.6,99.1,significantly suppressed dose-dependently,430 ± 236,231 ± 152,352 ± 104,154 ± 46,119 ± 11,39 ± 3
